Reference: paper PMC5442318, “Hundreds of dual-stage antimalarial molecules discovered by a functional gametocyte screen” (Nature Communications, 2017)
Like-named read-outs stand apart in the source and are kept apart here.

What was measured:
[1] = test system: P. falciparum stages IV–V gametocytes; test: Gametocytocidal ATP-depletion assay (gametocyte ATP bioluminescence); type: cell-based, Plasmodium falciparum; details: for inhibition at 2 µM: Plasmodium falciparum, mean
In short: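 Read-out is luciferase luminescence of parasite ATP (BacTiter-Glo), standing in for viability. Double-purified mature stage IV–V gametocytes, 12,500 per well, were exposed 48 h at 37 °C in low-O2 gas; screening concentration 2 μM.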

[2] = test system: P. falciparum stage V female gametocytes; test: P. falciparum female gametocyte activation assay (Pf FGAA), 24 h or 48 h preincubation, Pfs25 expression readout; type: cell-based, Plasmodium falciparum NF54; details: for Pf FGAA classification: SLOW / FAST / GAMETE from activity at 48h, 24h, 0h incubation
In short: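 Female activation, triggered by xanthurenic acid and cooling, was scored by imaging Cy3-labelled anti-Pfs25 female gametes after 24 h at 26 °C. Beforehand, purified NF54 stage V gametocytes had been incubated with compound for either 24 h or 48 h (37 °C, 3% O2). Values are pIC50 from full-curve regression.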

HepG2 cells = test: HepG2 cytotoxicity assay; type: cell-based
In short: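 Once incubation ended, the HepG2 plates were warmed to room temperature for 30 min alongside the CellTiter-Glo reagent. Luminescent signal was developed by reagent addition and stabilized for 10 min before plate reading.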

[3] = test system: P. falciparum asexual blood stages; details: cited from earlier work; for IC50: read-out: Pf Asexual blood stages XC50
[4] = test system: P. falciparum female gametes; test: Pf FGAA with compounds added 30 min after triggering gametocyte activation (gamete-targeting); type: cell-based, Plasmodium falciparum NF54; details: 0h incubation time
[5] = 24h incubation time, read-out: Pf FGAA IC50 (µM) 24h
[6] = P. falciparum female gametocytes, mean, read-out: Gametocytes mean Pf FGAA IC50
[7] = TCAMS asexual blood stage data, ref 1 (Gamo, F. J. et al., Nature 465, 305-310, 2010)
[8] = TCAMS data, ref 1 (Gamo, F. J. et al., Nature 465, 305-310, 2010)
[9] = Plasmodium falciparum, 24h incubation time, read-out: Pf FGAA IC50 (µM) 24h
[10] = mean, read-out: Gametocytes mean Pf FGAA IC50
[11] = TCAMS data, ref 1 (Gamo et al., 2010)

SMILES | Gametocytes mean ATP inhibition at 2µM [1] | IC50 [2, 5] | IC50 [2, 6] | Pf FGAA classification [2] | HepG2 cells mean TOX50 (HepG2 cells; HepG2 cells) | IC50 [3, 7] | Pf Asexual stages XC50 [3, 8] | IC50 [4] | inhibition at 2 µM [1] | IC50 [2, 9] | IC50 ([2]; Plasmodium falciparum, P. falciparum female gametocytes, mean, read-out: Gametocytes mean Pf FGAA IC50) | Selectivity ratio (HepG2 cells; HepG2 TOX50 versus Pf FGAA IC50) | IC50 ([4]; Plasmodium falciparum) | Gametocytes mean ATP inhibition at 2µM (%) [1] | IC50 [2, 10] | HepG2 cells mean TOX50 (HepG2 cells) | IC50 [3, 11] | IC50 ([2]; Plasmodium falciparum, mean, read-out: Gametocytes mean Pf FGAA IC50) | Selectivity ratio (HepG2 cells; HepG2 TOX50 vs Pf FGAA IC50)
Cc1cccc2nc(-c3ccc(-c4ccc(CNCCN5CCNCC5)cc4)s3)[nH]c12.O=C(O)C(F)(F)F [TCMDC-132870] | 8.76% | 18.8 µM | 1.53 µM | SLOW | 14.29 µM | 1150 nM | 1150 nM | > 20 µM |  |  |  |  |  |  |  |  |  |  | 
NC1CCN(CCc2ccc(NS(=O)(=O)c3ccc(-c4ccccc4)cc3)cc2)CC1 [TCMDC-134085] |  |  |  | FAST | 7.17 µM | 1020 nM | 1020 nM |  | -6.2% | 1.98 µM | 0.75 µM | 9.58 | > 20 µM |  |  |  |  |  | 
Cc1ccc(C(C(=O)Nc2ccc(N3CCNCC3)c(Cl)c2)c2ccccc2)cc1 (centres unmarked) [TCMDC-134292] | 19.42% | 17 µM | 0.66 µM | SLOW | 11.89 µM | 840 nM | 840 nM | > 20 µM |  |  |  |  |  |  |  |  |  |  | 
COc1cccc(-c2csc(C(=O)NCC3CCN(Cc4ccc(C(C)C)cc4)C3)c2)c1.O=C(O)C(F)(F)F (centres unmarked) [TCMDC-134439] | 2.89% | 3.22 µM | 1.37 µM | SLOW | 11.51 µM | 1390 nM | 1390 nM | > 20 µM |  |  |  |  |  |  |  |  |  |  | 
O=C(NCC1CCN(Cc2cccc(C(F)(F)F)c2)C1)c1cc(-c2cccc(C(F)(F)F)c2)cs1.O=C(O)C(F)(F)F (centres unmarked) [TCMDC-134483] | -4.13% | 2.45 µM | 1.65 µM | SLOW | 16.22 µM | 610 nM | 610 nM | > 20 µM |  |  |  |  |  |  |  |  |  |  | 
O=C(NCC1CCN(Cc2cccc(C(F)(F)F)c2)C1)c1cc(-c2cccc(F)c2)cs1.O=C(O)C(F)(F)F (centres unmarked) [TCMDC-134484] | -3.56% | 2.82 µM | 2.26 µM | SLOW | 18.87 µM | 1180 nM | 1180 nM | > 20 µM |  |  |  |  |  |  |  |  |  |  | 
O=C(NCC1CCN(Cc2cccc(C(F)(F)F)c2)C1)c1cc(-c2cccc(Cl)c2)cs1.O=C(O)C(F)(F)F (centres unmarked) [TCMDC-134485] | 2.16% | 12 µM | 0.89 µM | SLOW | 16.03 µM | 800 nM | 800 nM | > 20 µM |  |  |  |  |  |  |  |  |  |  | 
CN(C)c1ccc(-c2csc(C(=O)NCC3CCN(Cc4cccc(C(F)(F)F)c4)C3)c2)cc1.O=C(O)C(F)(F)F (centres unmarked) [TCMDC-134486] | -14.11% | 2.56 µM | 1.56 µM | SLOW | 8.18 µM | 840 nM | 840 nM | > 20 µM |  |  |  |  |  |  |  |  |  |  | 
N#Cc1ccc(-c2ccc(C(=O)NCC3CCN(CCN4CCC(c5ccc6c(c5OCC(N)=O)CCCC6)CC4)CC3)cc2)cc1 [TCMDC-134563] | -20.83% | 5.88 µM | 1.26 µM | SLOW | 6.17 µM | 440 nM | 440 nM | > 20 µM |  |  |  |  |  |  |  |  |  |  | 
O=C(O)C(F)(F)F.O=c1[nH]ccc2nc(N[C@@H]3CCNC3)nc(Nc3cc(Cl)cc(Cl)c3)c12 [TCMDC-135052] | -43.72% | 2.57 µM | 0.74 µM | SLOW | 4.79 µM | 740 nM | 740 nM | 15.1 µM |  |  |  |  |  |  |  |  |  |  | 
CC(C)(C)OC(=O)NCc1ccc(Nc2nnc(-c3cccc(C(=O)NCc4cc(C(F)(F)F)cc(C(F)(F)F)c4)c3)o2)cc1 [TCMDC-135229] | -6.34% | 2.41 µM | 3.14 µM | SLOW | 21.43 µM | 870 nM | 870 nM | > 20 µM |  |  |  |  |  |  |  |  |  |  | 
CN1CCN(Cc2ccc(-c3cc4c(Nc5ccc(OCc6cccc(F)c6)c(Cl)c5)ncnc4s3)[nH]2)CC1 [TCMDC-135458] | -48.07% |  | 2.41 µM | SLOW | 10.98 µM | 770 nM | 770 nM | > 20 µM |  |  |  |  |  |  |  |  |  |  | 
CC(C)N1CCN(C(CN2CCN(CCCOc3ccccc3-c3ccccc3)CC2)c2ccc(F)cc2)CC1.Cl (centres unmarked) [TCMDC-135499] | -15.92% | 5.74 µM | 1.41 µM | SLOW | 4.32 µM | 790 nM | 790 nM | 12.3 µM |  |  |  |  |  |  |  |  |  |  | 
CCn1c(-c2nonc2N)nc2c(-c3cccc(NC(=O)Nc4ccc(Cl)cc4)c3)ncc(OCCCN)c21.O=C(O)C(F)(F)F [TCMDC-136152] |  | 6.65 µM |  | SLOW |  |  | 830 nM | > 20 µM |  |  |  |  |  | -4.09% | 1.7 µM | 10.96 µM | 830 nM |  | 
CCn1c(-c2nonc2N)nc2c(-c3cccc(NC(=O)Nc4ccc5c(c4)CCC5)c3)ncc(OCCCN)c21.O=C(O)C(F)(F)F [TCMDC-136191] |  | 6.46 µM |  | SLOW |  |  | 780 nM | > 20 µM |  |  |  |  |  | -19.55% | 1.03 µM | 7.42 µM | 780 nM |  | 
CN(C)CCCNCc1cn(S(=O)(=O)c2ccccc2Cl)c2ccccc12 [TCMDC-136302] |  |  |  | FAST |  |  | 350 nM |  | 3.27% | 0.51 µM |  |  | > 20 µM |  |  | 11.78 µM | 1070 nM | 1.84 µM | 6.39
Cc1noc(C)c1-c1ccc2c(Nc3nccc4ccccc34)c(C(N)=O)cnc2c1 [TCMDC-136456] |  | 3.33 µM |  | SLOW |  |  | 890 nM | > 20 µM |  |  |  |  |  | 0.55% | 1.54 µM | 3.85 µM | 890 nM |  | 
